Data taken from the supplement of paper PMC5908809.

Tests used:
Assay in all cases: relative IC50 (inflection point of fitted viability curve, relative to fitted max inhibition); higher = less sensitive
Conditions in all cases: 72 h
[1] = test system: normal primary NK cells, pool 3 (3 donors) (IL-2 2.5 ng/mL)
Procedure: (§1)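 Drug sensitivity and resistance testing: 5 concentrations over a 10,000-fold range, 72 h at 37 °C, viability by CellTiter-Glo normalised to DMSO and benzethonium chloride controls. IC50 is the inflection point of a logistic fit (min fixed at 0, max fitted), so it is relative to the fitted maximal inhibition. Kept only where fitted max inhibition is at least 50%.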

YT (IL-2 2.5 ng/mL) = test system: YT (IL-2 2.5 ng/mL)
Procedure: as §1

KHYG-1 (IL-2 2.5 ng/mL) = test system: KHYG-1 (IL-2 2.5 ng/mL)
Procedure: as §1

IMC-1 (IL-2 20 ng/mL) = test system: IMC-1 (IL-2 20 ng/mL)
Procedure: as §1

NK-YS (IL-2 2.5 ng/mL) = test system: NK-YS (IL-2 2.5 ng/mL)
Procedure: as §1

SNK-6 (IL-2 2.5 ng/mL) = test system: SNK-6 (IL-2 2.5 ng/mL)
Procedure: as §1

NKL (IL-2 2.5 ng/mL) = test system: NKL (IL-2 2.5 ng/mL)
Procedure: as §1

KAI3 (IL-2 2.5 ng/mL) = test system: KAI3 (IL-2 2.5 ng/mL)
Procedure: as §1

NK-92 (IL-2 2.5 ng/mL) = test system: NK-92 (IL-2 2.5 ng/mL)
Procedure: as §1

DERL-7 (IL-2 2.5 ng/mL) = test system: DERL-7 (IL-2 2.5 ng/mL)
Procedure: as §1

[2] = test system: normal primary NK cells, pool 2 (3 donors) (IL-2 2.5 ng/mL)
Procedure: as §1

[3] = test system: normal primary NK cells, pool 1 (3 donors), resting (IL-2 0 ng/mL)
Procedure: as §1

[4] = test system: normal primary NK cells, pool 1 (3 donors) (IL-2 2.5 ng/mL)
Procedure: as §1

Row | Structure (SMILES) | relative IC50 [1] [nM] | relative IC50 (YT (IL-2 2.5 ng/mL)) [nM] | relative IC50 (KHYG-1 (IL-2 2.5 ng/mL)) [nM] | relative IC50 (IMC-1 (IL-2 20 ng/mL)) [nM] | relative IC50 (NK-YS (IL-2 2.5 ng/mL)) [nM] | relative IC50 (SNK-6 (IL-2 2.5 ng/mL)) [nM] | relative IC50 (NKL (IL-2 2.5 ng/mL)) [nM] | relative IC50 (KAI3 (IL-2 2.5 ng/mL)) [nM] | relative IC50 (NK-92 (IL-2 2.5 ng/mL)) [nM] | relative IC50 (DERL-7 (IL-2 2.5 ng/mL)) [nM] | relative IC50 [2] [nM] | relative IC50 [3] [nM] | relative IC50 [4] [nM]
1 | N#Cc1ccc(COC[C@H]2O[C@@H](n3c(NCc4ccc(Cl)c(Cl)c4)nc4c(N)ncnc43)[C@H](O)[C@@H]2O)cc1 | > 10000 | 1710 | 1810 | 3860 | 1310 | 1150 | – | – | – | – | – | – | –
2 | CC[C@@]1(O)C(=O)OCc2c1cc1n(c2=O)Cc2cc3ccccc3nc2-1 [Camptothecin] | 278 | 18.4 | 4.95 | 14.2 | 3.56 | 3.1 | 1.47 | 0.88 | 5.92 | 9.21 | 547 | – | –
3 | C[C@@]1(C(=O)Nc2ccc(F)nc2)CCCN1c1nc(Nc2cc(C3CC3)n[nH]2)c2cccn2n1 | – | 904 | 1150 | 2850 | 412 | 630 | – | – | 617 | 290 | – | 3420 | –
4 | CCN1CCN(Cc2ccc(Nc3ncc(F)c(-c4cc(F)c5nc(C)n(C(C)C)c5c4)n3)nc2)CC1 [Abemaciclib] | – | – | 236 | 978 | 446 | – | – | – | – | 130 | 743 | > 2500 | –
5 | COc1cc2/c(=N/c3ccc(Br)cc3F)nc[nH]c2cc1OCC1CCN(C)CC1 [Vandetanib] | > 1000 | – | – | – | – | – | – | – | – | – | – | – | –
6 | Cc1sc2c(c1C)C(c1ccc(Cl)cc1)=N[C@@H](CC(=O)OC(C)(C)C)c1nnc(C)n1-2 [(+)JQ1] | – | 238 | 165 | – | 231 | 215 | 113 | 362 | – | 76.9 | – | 1080 | 546
7 | COC1=CC(c2cc3ccccc3[nH]2)=N/C1=C\c1[nH]c(C)cc1C [Obatoclax] | – | – | – | – | – | – | 247 | – | 449 | – | – | 1880 | –
8 | C=C1C[C@@H]2[C@H](CC[C@]3(C)C(=O)CC[C@@H]23)[C@@]2(C)C=CC(=O)C=C12 [Exemestane] | – | – | – | – | – | – | – | – | – | – | – | 3290 | –
9 | Cc1cc(C)c(CNC(=O)c2cc(-c3ccc(CN4CCOCC4)cc3)cc3c2cnn3C2CCCC2)c(=O)[nH]1 [EPZ-5687] | > 10000 | – | – | > 10000 | – | – | > 10000 | – | > 10000 | – | > 10000 | – | –
10 | Clc1ccc(C(c2ccccc2Cl)C(Cl)Cl)cc1 (configuration not stated) [Mitotane] | – | > 10000 | > 10000 | > 10000 | > 10000 | – | > 10000 | > 10000 | > 10000 | – | > 10000 | – | –
11 | O=C(Cc1ccc(-c2ccc(OCCN3CCOCC3)cc2)cn1)NCc1ccccc1 [KX2-391] | – | 23 | 30.3 | 34.4 | 26.1 | 5.46 | 27.8 | 28.1 | 12.3 | 28.1 | – | – | –
